Reference: US20150105252A1, “SUBSTITUTED PYRAZOLES AS HERBICIDES” (E I DU PONT DE NEMOURS AND COMPANY, priority 2013, published 2015)

Key:
[1] = test system: lambsquarters; assay: Test C preemergence; type: in vivo, Chenopodium album
In short: (§1)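 Visual control ratings on a 0–100 scale (100 = complete control) made against untreated controls after 13 to 15 days in greenhouse. Compounds applied in surfactant-containing solvent mixture, either preemergence to loam/sand-sown seeds or postemergence to 1- to 4-leaf plants (2–18 cm) in peat medium.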

[2] = test system: blackgrass; assay: Test C postemergence; type: in vivo, Alopecurus myosuroides
In short: as §1

[3] = test system: ryegrass, Italian; assay: Test C postemergence; type: in vivo, Lolium multiflorum
In short: as §1

[4] = test system: wheat; assay: Test C postemergence; type: in vivo, Triticum aestivum
In short: as §1

[5] = test system: galium; assay: Test C postemergence; type: in vivo, Galium aparine
In short: as §1

[6] = test system: corn; assay: Test C postemergence; type: in vivo, Zea mays
In short: as §1

[7] = test system: crabgrass, large; assay: Test C postemergence; type: in vivo, Digitaria sanguinalis
In short: as §1

[8] = test system: foxtail, giant; assay: Test C postemergence; type: in vivo, Setaria faberii
In short: as §1

[9] = test system: morningglory; assay: Test C postemergence; type: in vivo, Ipomoea coccinea
In short: as §1

[10] = test system: ragweed; assay: Test C postemergence; type: in vivo, Ambrosia elation
In short: as §1

[11] = test system: soybean; assay: Test C postemergence; type: in vivo, Glycine max
In short: as §1

[12] = test system: barnyardgrass; assay: Test C postemergence; type: in vivo, Echinochloa crus-galli
In short: as §1

[13] = test system: waterhemp; assay: Test C postemergence; type: in vivo, Amaranthus rudis
In short: as §1

[14] = test system: chickweed; assay: Test C postemergence; type: in vivo, Stellaria media
In short: as §1

[15] = Postemergence, 31 g ai/ha, visually evaluated after 13 to 15 days
[16] = postemergence, 62 g ai/ha, scale 0 to 100
[17] = postemergence, 250 g ai/ha, scale 0 to 100 (0 no effect, 100 complete control)
[18] = postemergence, 125 g ai/ha, scale 0 to 100, 0 no effect, 100 complete control

SMILES: CCOc1cc(C(=O)NCC(F)(F)F)nn1Cc1ccnc(C(F)(F)F)c1 [Compound 104]
- Plant response rating (scale of 0 to 100), Lambsquarters ([1]; Preemergence, 250 g ai/ha): 100
- Lambsquarters plant response rating ([1]; preemergence, 31 g ai/ha, visual rating, scale 0 to 100 (0 no effect, 100 complete control), 13 to 15 days): 98
- Plant response rating, Lambsquarters ([1]; preemergence, 62 g ai/ha, 13 to 15 days, scale 0 to 100, 0 = no effect, 100 = complete control): 98
- Lambsquarters plant response rating ([1]; preemergence, 125 g ai/ha, scale 0 to 100, 0 is no effect, 100 is complete control): 100
- Plant response rating (scale of 0 to 100 where 0 is no effect and 100 is complete control), Blackgrass [2, 15]: 10
- Blackgrass plant response rating [2, 16]: 10
- Plant response rating, Blackgrass [2, 17]: 80
- Plant response rating, Blackgrass [2, 18]: 40
- Plant response rating (scale of 0 to 100 where 0 is no effect and 100 is complete control), Ryegrass, Italian [3, 15]: 5
- Ryegrass, Italian plant response rating [3, 16]: 5
- Plant response rating, Ryegrass, Italian [3, 17]: 80
- Plant response rating, Ryegrass, Italian [3, 18]: 35
- Plant response rating (scale of 0 to 100 where 0 is no effect and 100 is complete control), Wheat [4, 15]: 5
- Wheat plant response rating [4, 16]: 10
- Plant response rating, Wheat [4, 17]: 25
- Plant response rating, Wheat [4, 18]: 10
- Plant response rating (scale of 0 to 100 where 0 is no effect and 100 is complete control), Galium [5, 15]: 60
- Galium plant response rating [5, 16]: 60
- Plant response rating, Galium [5, 17]: 85
- Plant response rating, Galium [5, 18]: 85
- Plant response rating (scale of 0 to 100 where 0 is no effect and 100 is complete control), Corn [6, 15]: 5
- Corn plant response rating [6, 16]: 35
- Plant response rating, Corn [6, 17]: 95
- Plant response rating, Corn [6, 18]: 35
- Plant response rating (scale of 0 to 100 where 0 is no effect and 100 is complete control), Crabgrass, Large [7, 15]: 5
- Crabgrass, Large plant response rating [7, 16]: 70
- Plant response rating, Crabgrass, Large [7, 17]: 95
- Plant response rating, Crabgrass, Large [7, 18]: 75
- Plant response rating (scale of 0 to 100 where 0 is no effect and 100 is complete control), Foxtail, Giant [8, 15]: 5
- Foxtail, Giant plant response rating [8, 16]: 85
- Plant response rating, Foxtail, Giant [8, 17]: 98
- Plant response rating, Foxtail, Giant [8, 18]: 90
- Plant response rating (scale of 0 to 100 where 0 is no effect and 100 is complete control), Morningglory [9, 15]: 0
- Morningglory plant response rating [9, 16]: 80
- Plant response rating, Morningglory [9, 17]: 98
- Plant response rating, Morningglory [9, 18]: 95
- Plant response rating (scale of 0 to 100 where 0 is no effect and 100 is complete control), Ragweed [10, 15]: 85
- Ragweed plant response rating [10, 16]: 85
- Plant response rating, Ragweed [10, 17]: 95
- Plant response rating, Ragweed [10, 18]: 95
- Plant response rating (scale of 0 to 100 where 0 is no effect and 100 is complete control), Soybean [11, 15]: 90
- Soybean plant response rating [11, 16]: 95
- Plant response rating, Soybean [11, 17]: 95
- Plant response rating, Soybean [11, 18]: 95
- Plant response rating (scale of 0 to 100 where 0 is no effect and 100 is complete control), Barnyardgrass [12, 15]: 5
- Barnyardgrass plant response rating [12, 16]: 5
- Plant response rating, Barnyardgrass [12, 17]: 90
- Plant response rating, Barnyardgrass [12, 18]: 45
- Plant response rating (scale of 0 to 100 where 0 is no effect and 100 is complete control), Waterhemp [13, 15]: 35
- Waterhemp plant response rating [13, 16]: 85
- Plant response rating, Waterhemp [13, 17]: 98
- Plant response rating (scale of 0 to 100 where 0 is no effect and 100 is complete control), Chickweed [14, 15]: 55
- Chickweed plant response rating [14, 16]: 70
- Plant response rating, Chickweed [14, 17]: 90
- Plant response rating, Chickweed [14, 18]: 80
